Measurements published in patent US20160009693A1, “HERBICIDAL COMPOUNDS” (SYNGENTA LIMITED, priority 2013, published 2016).

Tests used:
Assay type in all cases: in vivo
Settings in all cases: applied at 1000 g/h, evaluated after 13 days
[1] = test system: Amaranthus retoflexus (AMARE); assay: Herbicidal glasshouse test, post-emergence, AMARE
Outline: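 This post-emergence glasshouse test used AMARE plants raised in standard soil for 8 days under controlled conditions (24/16° C. day/night, 14 hours light, 65% humidity). Foliage was sprayed with formulated compound in acetone/water (50:50) containing 0.5% Tween 20. Plants were then watered twice daily, and after 13 days percentage damage was rated on a five point scale.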

[2] = test system: Ipomoea hederacea (IPOHE); assay: Herbicidal glasshouse test, pre-emergence, IPOHE
[3] = test system: Echinochloa crus-galli (ECHCG); assay: Herbicidal glasshouse test, pre-emergence, ECHCG
Outline: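 In this pre-emergence glasshouse test, ECHCG seeds sown in pots of standard soil were sprayed one day after sowing with the test material in acetone/water (50:50) containing 0.5% Tween 20. Plants were kept at 24/16° C., 14 hours light, 65% humidity, and watered twice daily. Percentage damage was rated after 13 days on a 1–5 scale.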

Solanum nigrum (SOLNI) [4] = assay: Herbicidal glasshouse test, post-emergence, SOLNI
[5] = test system: Alopecurus myosuroides (ALOMY); assay: Herbicidal glasshouse test, pre-emergence, ALOMY
[6] = test system: Amaranthus retoflexus (AMARE); assay: Herbicidal glasshouse test, pre-emergence, AMARE
Outline: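 This pre-emergence glasshouse herbicide test used Amaranthus retoflexus sown in standard soil. After one day of cultivation, an aqueous spray made from the technical ingredient in 50:50 acetone/water with 0.5% Tween 20 was applied. Pots stayed at 24/16° C., 14 hours light, 65% humidity, with twice-daily watering. Damage was rated on a five point scale (1=0-19% up to 5=80-100%).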

[7] = test system: Alopecurus myosuroides (ALOMY); assay: Herbicidal glasshouse test, post-emergence, ALOMY
[8] = test system: Ipomoea hederacea (IPOHE); assay: Herbicidal glasshouse test, post-emergence, IPOHE
Setaria faberi (SETFA) [9] = assay: Herbicidal glasshouse test, pre-emergence, SETFA
Solanum nigrum (SOLNI) [10] = assay: Herbicidal glasshouse test, pre-emergence, SOLNI
Outline: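 This pre-emergence glasshouse herbicide test used Solanum nigrum sown in standard soil. One day after sowing, pots were sprayed with the compound in acetone/water (50:50) with 0.5% Tween 20. They were then grown at 24/16° C., with 14 hours light and 65% humidity, and watered twice daily. Percentage damage was scored after 13 days on a five point scale, where 5=80-100% and 1=0-19%.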

Setaria faberi (SETFA) [11] = assay: Herbicidal glasshouse test, post-emergence, SETFA
Outline: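 This post-emergence glasshouse herbicide test used potted Setaria faberi. Plants were cultivated for 8 days under controlled conditions (24/16° C. day/night, 14 hours light, 65% humidity) and then treated with an aqueous spray made from an acetone/water (50:50) solution containing 0.5% Tween 20. After 13 days of further growth with twice-daily watering, damage was rated on a five point scale (5=80-100%; 1=0-19%).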

[12] = test system: Echinochloa crus-galli (ECHCG); assay: Herbicidal glasshouse test, post-emergence, ECHCG
Outline: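 In this post-emergence glasshouse test, barnyard grass (ECHCG) was cultivated for 8 days under controlled conditions (24/16° C. day/night, 14 hours light, 65% humidity). It was then sprayed with an aqueous solution of the technical compound in acetone / water (50:50) with 0.5% Tween 20. Plants were kept under the same conditions and watered twice daily. After 13 days, percentage damage was rated on a five point scale (5=80-100%; 1=0-19%).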

Cn1nnnc1NC(=O)c1nn(C)c(=O)n(Cc2c(F)cccc2F)c1=O [Compound 1.065]
5 (5=80-100%): POST Application AMARE, percentage damage (five point scale) [1] | PRE Application IPOHE, percentage damage (five point scale) [2] | PRE Application ECHCG, percentage damage (five point scale) [3] | POST Application SOLNI, percentage damage (five point scale) (Solanum nigrum (SOLNI) [4]) | PRE Application ALOMY, percentage damage (five point scale) [5] | PRE Application AMARE, percentage damage (five point scale) [6] | POST Application ALOMY, percentage damage (five point scale) [7] | POST Application IPOHE, percentage damage (five point scale) [8] | PRE Application SETFA, percentage damage (five point scale) (Setaria faberi (SETFA) [9]) | PRE Application SOLNI, percentage damage (five point scale) (Solanum nigrum (SOLNI) [10]) | POST Application SETFA, percentage damage (five point scale) (Setaria faberi (SETFA) [11]) | POST Application ECHCG, percentage damage (five point scale) [12]

Cn1nnnc1NC(=O)c1nn(C)c(=O)n(Cc2ccc(OC(F)F)cc2)c1=O [Compound 1.066]
5 (5=80-100%): POST Application AMARE, percentage damage (five point scale) [1] | PRE Application IPOHE, percentage damage (five point scale) [2] | PRE Application ECHCG, percentage damage (five point scale) [3] | POST Application SOLNI, percentage damage (five point scale) (Solanum nigrum (SOLNI) [4]) | PRE Application ALOMY, percentage damage (five point scale) [5] | PRE Application AMARE, percentage damage (five point scale) [6] | POST Application ALOMY, percentage damage (five point scale) [7] | POST Application IPOHE, percentage damage (five point scale) [8] | PRE Application SOLNI, percentage damage (five point scale) (Solanum nigrum (SOLNI) [10]) | POST Application ECHCG, percentage damage (five point scale) [12]
1 (1=0-19%): PRE Application SETFA, percentage damage (five point scale) (Setaria faberi (SETFA) [9]) | POST Application SETFA, percentage damage (five point scale) (Setaria faberi (SETFA) [11])

Cn1nnnc1NC(=O)c1nn(C)c(=O)n(Cc2cccc(F)c2F)c1=O [Compound 1.067]
4 (4=60-79%): PRE Application SETFA, percentage damage (five point scale) (Setaria faberi (SETFA) [9]) | POST Application SETFA, percentage damage (five point scale) (Setaria faberi (SETFA) [11])
5 (5=80-100%): POST Application AMARE, percentage damage (five point scale) [1] | PRE Application IPOHE, percentage damage (five point scale) [2] | PRE Application ECHCG, percentage damage (five point scale) [3] | POST Application SOLNI, percentage damage (five point scale) (Solanum nigrum (SOLNI) [4]) | PRE Application ALOMY, percentage damage (five point scale) [5] | PRE Application AMARE, percentage damage (five point scale) [6] | POST Application ALOMY, percentage damage (five point scale) [7] | POST Application IPOHE, percentage damage (five point scale) [8] | PRE Application SOLNI, percentage damage (five point scale) (Solanum nigrum (SOLNI) [10]) | POST Application ECHCG, percentage damage (five point scale) [12]

Cn1nnnc1NC(=O)c1nn(C)c(=O)n(Cc2ccc(Cl)c(Cl)c2)c1=O [Compound 1.068]
3 (3=40-59%): PRE Application ALOMY, percentage damage (five point scale) [5] | POST Application ALOMY, percentage damage (five point scale) [7]
2 (2=20-39%): PRE Application ECHCG, percentage damage (five point scale) [3]
1 (1=0-19%): PRE Application IPOHE, percentage damage (five point scale) [2] | PRE Application SETFA, percentage damage (five point scale) (Setaria faberi (SETFA) [9]) | POST Application SETFA, percentage damage (five point scale) (Setaria faberi (SETFA) [11])
4 (4=60-79%): POST Application ECHCG, percentage damage (five point scale) [12]
5 (5=80-100%): POST Application AMARE, percentage damage (five point scale) [1] | POST Application SOLNI, percentage damage (five point scale) (Solanum nigrum (SOLNI) [4]) | PRE Application AMARE, percentage damage (five point scale) [6] | POST Application IPOHE, percentage damage (five point scale) [8] | PRE Application SOLNI, percentage damage (five point scale) (Solanum nigrum (SOLNI) [10])

Cn1nnnc1NC(=O)c1nn(C)c(=O)n(Cc2ccc(F)cc2Cl)c1=O [Compound 1.069]
2 (2=20-39%): PRE Application SETFA, percentage damage (five point scale) (Setaria faberi (SETFA) [9]) | POST Application SETFA, percentage damage (five point scale) (Setaria faberi (SETFA) [11])
5 (5=80-100%): POST Application AMARE, percentage damage (five point scale) [1] | PRE Application IPOHE, percentage damage (five point scale) [2] | PRE Application ECHCG, percentage damage (five point scale) [3] | POST Application SOLNI, percentage damage (five point scale) (Solanum nigrum (SOLNI) [4]) | PRE Application ALOMY, percentage damage (five point scale) [5] | PRE Application AMARE, percentage damage (five point scale) [6] | POST Application ALOMY, percentage damage (five point scale) [7] | POST Application IPOHE, percentage damage (five point scale) [8] | PRE Application SOLNI, percentage damage (five point scale) (Solanum nigrum (SOLNI) [10]) | POST Application ECHCG, percentage damage (five point scale) [12]

COc1cc(Cn2c(=O)c(C(=O)Nc3nnnn3C)nn(C)c2=O)cc(Cl)n1 [Compound 1.070]
1 (1=0-19%): PRE Application SETFA, percentage damage (five point scale) (Setaria faberi (SETFA) [9])
5 (5=80-100%): POST Application AMARE, percentage damage (five point scale) [1] | PRE Application IPOHE, percentage damage (five point scale) [2] | PRE Application ECHCG, percentage damage (five point scale) [3] | POST Application SOLNI, percentage damage (five point scale) (Solanum nigrum (SOLNI) [4]) | PRE Application ALOMY, percentage damage (five point scale) [5] | PRE Application AMARE, percentage damage (five point scale) [6] | POST Application ALOMY, percentage damage (five point scale) [7] | POST Application IPOHE, percentage damage (five point scale) [8] | PRE Application SOLNI, percentage damage (five point scale) (Solanum nigrum (SOLNI) [10]) | POST Application ECHCG, percentage damage (five point scale) [12]
2 (2=20-39%): POST Application SETFA, percentage damage (five point scale) (Setaria faberi (SETFA) [11])

Cn1nnnc1NC(=O)c1nn(C)c(=O)n(Cc2ccc([N+](=O)[O-])cc2)c1=O [Compound 1.071]
4 (4=60-79%): POST Application ALOMY, percentage damage (five point scale) [7] | POST Application ECHCG, percentage damage (five point scale) [12]
1 (1=0-19%): POST Application SETFA, percentage damage (five point scale) (Setaria faberi (SETFA) [11])
2 (2=20-39%): POST Application IPOHE, percentage damage (five point scale) [8] | PRE Application SETFA, percentage damage (five point scale) (Setaria faberi (SETFA) [9])
5 (5=80-100%): POST Application AMARE, percentage damage (five point scale) [1] | PRE Application IPOHE, percentage damage (five point scale) [2] | PRE Application ECHCG, percentage damage (five point scale) [3] | POST Application SOLNI, percentage damage (five point scale) (Solanum nigrum (SOLNI) [4]) | PRE Application ALOMY, percentage damage (five point scale) [5] | PRE Application AMARE, percentage damage (five point scale) [6] | PRE Application SOLNI, percentage damage (five point scale) (Solanum nigrum (SOLNI) [10])
